From patent publication US20210070730A1, “H2S-BASED THERAPEUTIC AGENTS FOR THE TREATMENT OF NEURODEGENERATIVE DISEASES” (INTERNATIONAL SOCIETY FOR DRUG DEVELOPMENT S.R.L., priority 2017, published 2021)
Like-named read-outs stand apart in the source and are kept apart here. Marks after values point to notes of the source that are not given here.

Columns and labels:
[1] = Amperometric determination of H2S release; assay type: physicochemical; conditions: assay buffer, absence or presence of L-cysteine
Experimental: FIG. 1: Curves describe the increase of H2S concentration, with respect to time, following the incubation of GYY 4137, the H2S-prodrug MT66 in the assay buffer, in the absence (white symbol) or in the presence of L-cysteine (black symbol) or glutathione (black triangles). H2S was recorded by amperometry; the vertical bars indicate the SEM.
Amperometric Determination of H2S: The characterization of the H2S-generating properties of the new compounds was carried out by amperometric approaches through an Apollo-4000 Free Radical Analyzer (WPI) detector and H2S-selective minielectrodes. The procedure has been recently reported by us.
The H2S-releasing properties were evaluated both in the absence or in the presence of an organic thiol such as L-cysteine.

[2] = test system: Human neuronal-like cells; experiment: ROS production in LPS/TNF-α challenged neuronal-like cells (DCFH2-DA); assay type: cell-based; conditions: 10 μM pre-treatment 24 h, then LPS and TNF-α 16 h
Experimental: FIG. 3. Effects induced on ROS production. Human neuronal-like cells were treated with medium alone (CONTROL) or the compound (10 μM) for 24 h; after drug removal, cells were incubated with 50 μg/ml LPS and 50 ng/ml TNF-α for an additional 16 h. At the end of treatment, ROS production was measured using the fluorogenic probe DCFH2-DA. The data are expressed as percentages relative to untreated cells (control), which were set at 100%, and represent the mean±SEM of two independent experiments, each performed in triplicate. Statistical significance was determined using a one-way ANOVA-Tukey HSD post hoc test: ***P<0.001 vs. control; ###P<0.001 vs. cells treated with LPS-TNF-α.
Mitochondria ROS generation: The generation of ROS was assessed by the fluorogenic probe DCFH2-DA (Molecular Probes, Invitrogen) in Neuronal-like cells, differentiated from H9-derived NSCs.). […] This nonfluorescent molecule is readily converted to a green-fluorescent form […] when the acetate group is removed by intracellular esterases and an oxidation by ROS occurs within the cell. […] Fluorescence increase was estimated in a plate reader at 485 nm (excitation) and 520 nm (emission) (Wallac, Victor 2, 1420 multilabel counter, PerkinElmer). The fluorescence values were normalized between samples for cell number content and assessed by a crystal violet cell staining assay. […]

U87MG cells = experiment: Western blot of autophagy markers in U87MG cells; assay type: cell-based, human; conditions: 10 μM; for LC3II expression (LC3II/LC3I ratio) / p62 expression / p-mTOR expression (p-mTOR/mTOR ratio): 4 h; for LC3II expression: 24 h
Experimental: FIG. 6. Western blot quantification of LC3II/LC3I ratio, p62, mTOR and Akt as hallmarks of the degree of ATG activation. […] (D) Western blot quantification of pAkt/Akt ratio in U87MG cells. Results represent mean±SEM of three different gels. *P<0.05, **P<0.01, ***P<0.001 versus vehicle treated cells (Control).
Western blot analysis. The human U-87MG cells were seeded in 6-well plates in a final volume of 2 ml/well at a density of 1×10^6/well and grown to 80% of confluence with standard medium (DMEM-High Glucose). Cells were treated with vehicle (0.1% DMSO) or test compounds (i.e. 10 μM Memantine or Memit and (1 μM) Rapamycin and incubated at 37° C. for 4 and 24 h. Treated cells were washed twice with PBS and lysed in Tris-buffered saline buffer-1% Triton-X100; NaCl 150 mM; Tris-HCl 20 mM; EDTA 1 mM; EGTA 1 mM; NaF 20 mM; Na4P2O7 25 mM; Na3VO4 1 mM; PMSF 1 mM; 8 μ/ml protein cocktail inhibitors (Sigma-Aldrich, Milan, Italy). Proteins (30-40 μg) were separated on Criterion TGX™ gel (4-20%) and transferred on Immuno-PVDF membrane (Bio-Rad, Milan, Italy) for 1 h. Blots were incubated for 12 h with diluted primary antibody [1:1000, LC3A/B; p62; mTOR, p-mTOR; Akt, p-Akt(Ser 473); β-actin, Cell Signaling] in 5% w/v BSA, 1× TBS and 0.1% Tween 20 at 4° C. under gentle shaking. Then, blots were washed three times for 10 min with 1× TBS, 0.1% Tween 20 and incubated for 1 h with secondary antibody (peroxidase-coupled anti rabbit in 1× TBS, 0.1% Tween 20). […] Band densitometric analysis was performed using Image Lab Software (Bio-Rad, Milan, Italy).
Evaluation of proautophagic activity: Expression of protein LC3-II, p62, and m-TOR, indicators of autophagy, were detected by western blotting, using Rapamycin as a positive control. In U87MG cell lines.

Rat microglia cells = experiment: Microglia protection from Aβ(1-42) induced injury (MTS assay); assay type: cell-based; conditions: 10 μM pre-treatment 24 h, then Aβ1-42 24 h
Experimental: FIG. 7. Rat microglia cells were pre-treated with the compounds (10 μM) for 24 h. After washing, the cells were incubated with Aβ1-42 for 24 h. At the end of treatments, cell proliferation was measured by MTS assay. The data are expressed as percentages relative to untreated cells (control), which were set at 100%, and represent the mean±SEM of three independent experiments, each performed in triplicate. Statistical significance was determined using a one-way ANOVA followed by a Bonferroni post-test: *p<0.05 vs control; #p<0.05 vs cells treated with Aβ1-42.
Cell proliferation/viability assays on rat microglia cells. Rat microglia cells were isolated from mixed cell culture obtained from Sprague-Dawley rat cortex, by gentle physical shaking, as described. After isolation, cells were seeded into 96 well-plated with fresh culture media and pretreated with MT66 or native drug (10 μM) for 24 h; before washing and incubation with Aβ1-42 for 24 h. Following incubation time, cell viability was determined using the MTS assay. The absorbance of formazan was measured at […]. The results were calculated by subtracting the mean background from the values obtained from each test condition and were expressed as the percentage of the control (untreated cells).
Microglia protection from Aβ(1-42) induced injury. Microglia, together with astrocytes, forms the main active immune defense of the CNS. […]

NMDAR = experiment: Displacement of specific [3H]MK-801 binding in rat cortex membranes
Experimental: [^3H]MK-801 Binding Assay. Crude synaptic membranes were prepared from the cerebral cortex of Sprague-Dawley rats. The pellets were stored at −80° C. for at least 24 h, and washed three more times with Tris-HEPES buffer (Tris 4.5 mM, HEPES 5 mM, pH 7.4) to remove the endogenous amino acids before the binding assay. In the binding assay, 50 μL of membrane preparation (40-50 μg protein), and 10 μL of compound were mixed at 25° C. in the presence of […] L-glutamate (10 μM) and 50 μL of glycine (10 μM). Then, 50 μl of [^3H]MK-801 (final concentration 3 nM) were added to the preparation. Tris-HEPES buffer was added to a final volume of 0.5 mL. Following incubation time of 2 h at 25° C., binding was terminated by filtration […]. Radioactivity was measured using a PerkinElmer liquid scintillation counter. Nonspecific binding was determined in the presence of unlabeled 100 μM MK-801. […] For compound activity determination, aliquots of membrane pellets were incubated with different ligand concentrations of MT66 and reference drug (10 nM-10 μM) in the absence of presence of 4 mM Cysteine for 30 min, and then incubated with 3 nM [^3H]MK-801 for 2 h at 25° C. Samples were then filtered, and the radioactivity was counted.
Displacement of specific [^3H]MK-801 binding in rat cortex membranes in the absence or presence of cysteine (Cys). MT66 was tested to assess its abilities to inhibit native-target activity (i.e. NMDAR). Binding to specific receptors (such as NMDAR) has been assessed using the assay based on the displacement of [^3H]MK-801 [19]. The evaluation has been performed in the presence and in absence of Cys.

[3] = test system: Aβ(1-40) self-induced aggregation; experiment: Thioflavin T fluorescence assay of Aβ aggregation; assay type: cell-based; conditions: 10 μM pre-treatment 24 h, ThT fluorescence
Experimental: The Thioflavin T fluorescence assay. Thioflavin T (ThT) dye fluorescence was used to quantify the formation and inhibition of amyloid oligomers in the presence of anti-amyloidogenic compounds. The ThT stock solution was prepared by adding 8 mg ThT to 10 mL phosphate buffer (10 mM phosphate, 150 mM NaCl, pH 7.0) and filter through a 0.2 μm syringe filter. This stock solution should be stored in the dark and is stable for about one week. On the day of the analysis, the stock solution was diluted into PBS to obtain the concentration of 10 μM. The Aβ1-42 oligomers were prepared by diluting the stock solution in PBS and the dilution was shaking for 48 hours at 37° C. The cells were seeded in black 96-multiwell plate (3000 c/w) and treated with the compound MT66 and reference drug (10 μM) for 24 h. Following incubation time, cells were washed and incubated with Aβ1-42 oligomers for 24 h. After this time, 200 μl of ThT 10 μM were added to each well in the dark. The ThT fluorescence intensity of each sample was recorded every 5 min using a spectrophotometer by excitation at 355 nm and emission 535 nm.
Inhibition of Aβ(1-40) self-induced aggregation. The new compound was also tested to evaluate their ability to inhibit the Aβ(1-40) self-induced aggregation.

[4] = test system: Human neuronal-like cells; experiment: Neuroprotection in LPS/TNF-α challenged neuronal-like cells (MTS assay); assay type: cell-based; conditions: 10 μM pre-treatment 24 or 72 h, then 50 μg/ml LPS and 50 ng/ml TNF-α 16 h
Experimental: FIG. 2: Neuroprotective effects. Human neuronal-like cells were treated with medium alone (CONTROL) or with the compounds (10 μM) for 24 h (light grey) or 72 h(dark grey); after drug removal, cells were incubated with 50 μg/ml LPS and 50 ng/ml TNF-α for an additional 16 h. At the end of treatment, cell proliferation was measured by MTS assay. The data are expressed as percentages relative to untreated cells (control), which were set at 100%, and represent the mean±SEM of three independent experiments, each performed in triplicate. Statistical significance was determined using a one-way ANOVA-Tukey HSD post hoc test: *P<0.05, ***P<0.001 vs. control; ##P<0.01, ###P<0.001 vs. cells treated with LPS-TNF-α.
Cell proliferation/viability assays: Following incubation time, cell viability was determined using the MTS assay according to the manufacturer's instruction. […] The absorbance of formazan at […] was measured in a colorimetric assay with an automated plate reader. The results were calculated by subtracting the mean background from the values obtained from each test condition, and are expressed as the percentage of the control (untreated cells).
Evaluation of neuroprotective effects. […] The effects of H2S prodrug under physiological conditions and under inflammatory stress exposure were assessed by measuring cellular viability.

[5] = presence of 4 mM cysteine, 30 min preincubation, read-out: Ki, nM (+Cys 4 mM, 30 min)

| SMILES | H2S-releasing properties [1] | ROS accumulation under inflammatory conditions [2] | LC3II expression (LC3II/LC3I ratio) (U87MG cells) | p62 expression (U87MG cells) | p-mTOR expression (p-mTOR/mTOR ratio) (U87MG cells) | LC3II expression (U87MG cells) | cell proliferation after Aβ1-42 oligomers (Rat microglia cells) | Percentage of inhibition of specific [3H]MK-801 binding (−Cys) (NMDAR; absence of cysteine, concentration not given) [% ^b] | Ki (NMDAR; [5]) [nM] | Aβ(1-40) self-induced aggregation [3] | cell proliferation/viability after inflammatory insult [4] | Ki (NMDAR; absence of cysteine, 3 nM [3H]MK-801, rat cortex membranes, read-out: Ki, nM (−Cys)) [nM] | Kd (NMDAR; rat cortex membranes, read-out: dissociation constant (Kd) of [3H]MK-801) [nM] |
| --- | --- | --- | --- | --- | --- | --- | --- | --- | --- | --- | --- | --- | --- |
| C1COCCN1.COc1ccc(P(=S)(S)N2CCOCC2)cc1 (centres unmarked) [GYY4137, reference compound] | slow H2S-releasing | – | – | – | – | – | – | – | – | – | – | – | – |
| CC12CC3CC(C)(C1)CC(N=C=S)(C3)C2 [MT66] | slow and L-cysteine-dependent H2S-releasing mechanism | almost completely counteracted inflammatory-mediated effects | significant up-regulation | decreased expressions | decreased expressions | remained almost unchanged | completely restore cell proliferation | 28.0 | 458 ± 77.7 | induces a reduction | exhibited neuroprotective effects during inflammation | – | – |
| CC12CC3CC(C)(C1)CC(N)(C3)C2 [Memantine, reference compound] | – | – | significant up-regulation | decreased expressions | decreased expressions | remained almost unchanged | completely restore cell proliferation | – | 329 ± 10.9 | – | – | 955 ± 74.2 | – |
| CC12NC(Cc3ccccc31)c1ccccc12 (centres unmarked) [[^3H]MK-801] | – | – | – | – | – | – | – | – | – | – | – | – | 4 |
